From patent US20090176786A1, “Benzoylurea Compounds and Use Thereof” (priority 2005, published 2009)

Columns and labels:
Assay type in all cases: in vivo
[1] = tested on: Plutella xylostella; test: Test Example 2: cabbage root immersion (systemic), dead pest rate of Plutella xylostella larvae; settings: Plutella xylostella, 120 h; test concentration 25 ppm; root immersion 5 days; 10 second-instar larvae; after 5 days at 24° C.
Description: In 0.25 mL of a mixture solution of Sorgen TW-20 (manufactured by Daiichi Industries Pharmaceuticals, Co., Ltd.) and acetone (mixture volume ratio; Sorgen TW-20:acetone=1:19), 2.5 mg of the present compound (1), (2), (3), (4), (7), (10), (11), (12), (16), (18), (19), (20), (21), (22), (25), (30), (36), (37), (41), (42), (52), (54), (56), (57), (60), (62), (105) or (109) was dissolved. The solution was diluted with ion-exchanged water so that the active ingredient concentration became to a predetermined concentration to prepare a pesticidal solution for test of the test compound. The root part of cabbages in the fourth leaf period were washed with tap water to remove soils, and then immersed in the pesticidal solution for test. After 5 days from immersion of the root part, the root part was removed, and the leaves and stems were put in a cup (volume; 180 mL). In the cup 10 second-instar larvae of Plutella xylostella were released, and the cup was stored at 24° C. After 5 days, the number of dead pests was counted, and the dead pest rate was calculated by the following equation:
(§1) Dead pest rate(%)=(the number of dead pests/the number of tested pests)×100
The test concentrations of the other present compounds were 25 ppm.

[2] = tested on: Coptotermes formosanus; test: Test Example 8: filter paper bait test, control rate of Coptotermes formosanus; settings: filter paper bait treated with 1 mL of 10 mg/mL acetone solution; 20 ergates; 6 weeks in a dark place
Description: A filter paper having a diameter of 33 mm (No. 1026 manufactured by Toyo Filter Paper, Co., Ltd.) was treated with acetone solution (1 mL) of 10 mg/mL of the present compounds (1) or (12) using a pipette, and dried at room temperature. Hereinafter, the resulting filter paper is referred to as a filter paper bait. 4% agarose was poured into a plastic petri dish having a diameter of 9 cm to make the thickness about 5 mm, and solidified by leaving at rest at room temperature. One circular hole having a diameter of 35 mm (hereinafter, referred to as a well) was made in the solidified agarose. One filter paper bait was put into the well. Then, after 20 ergates of Coptotermes formosanus were released in the above petri dish, the petri dish was capped, and sealed with a parafilm. After storing in a dark place for 6 weeks, the petri dish was opened. The control rate was calculated by observing the life and death of the Coptotermes formosanus in the petri dish.

[3] = tested on: Plutella xylostella; test: Test Example 1: spray on cabbage, dead pest rate of Plutella xylostella larvae; settings: Plutella xylostella, 120 h; 500 ppm spray solution, 20 ml/cup on cabbage; 5 second-instar larvae; after 5 days
Description: Ten parts of the present compound (1), (2), (5) to (19), (21) to (34), (36) to (61), (63), (64), (68) to (71), (74), (76) to (78), (82) to (83), (89), (93), (94), (97), (99), (102) to (110), (111), (115), (116) (117) to (120) or (123) to (134); 35 parts of white carbon containing 50 parts of polyoxyethylene alkyl ether sulfate ammonium salt; and 55 parts of water were mixed, and finely ground by a wet grinding method to obtain a 10% flowable agent. The obtained flowable agent was diluted with water so that the active ingredient concentration became to 500 ppm to prepare a spray solution for test.
Cabbages were planted in polyethylene cups, and grown until the third true leaf or the fourth true leaf was developed. The spray solution for test prepared above was sprayed at a rate of 20 ml/cup on the cabbages.
After the pesticidal solution sprayed onto the cabbages was dried, 5 second-instar larvae of Plutella xylostella were put on the cabbages. After 5 days, the number of dead Plutella xylostella was examined, and a dead pest rate was calculated by the following equation:
as §1

[4] = tested on: Spondoptela litura; test: Test Example 3: treated artificial diet (Insecta LF), dead pest rate of Spondoptela litura larvae; settings: 144 h, 2 mL on Insecta LF diet, 5 fourth-instar larvae, after 6 days
Text: Ten parts of the present compound (1) to (5), (7) to (13), (18) to (33), (35) to (49), (52) to (56), (58) to (61), (71), (73) to (77), (79), (80), (82), (83), (93), (94), (95), (96), (97), (100) to (109), (111), (112), (115), (117), (119), (121), or (123) to (133), 35 parts of white carbon containing 50 parts of polyoxyethylene alkyl ether sulfate ammonium salt, and 55 parts of water were mixed, and finely ground by a wet grinding method to obtain a preparation. The obtained preparation was diluted with water so that the active ingredient concentration became to 500 ppm to prepare a pesticidal solution for test. On the bottom of a polyethylene cup having a diameter of 5.5 cm, a filter paper having a diameter of 5.5 cm was placed, on which Insecta LF (Nippon Agriculture Industries, Co., Ltd.) sliced in a thickness of 6 mm and further cut half was laid, and to which 2 mL of the above-described pesticidal solution for test was added. After air-dried, 5 fourth-instar larvae of Spondoptela litura were released in the cup, and the cup was capped. After 6 days, the number of dead pests was counted, and the dead pest rate was calculated by the following equation:
as §1

[5] = tested on: Plutella xylostella; test: Test Example 7: cabbage root immersion, Plutella xylostella, against comparative compound D; settings: 25 ppm; root immersion 5 days; 10 second-instar larvae; after 5 days at 24° C.
Description: (§2) In 0.25 mL of a mixed solution of Tween-20 and acetone (mixture volume ratio: Tween-20:acetone=1:19), 2.5 mg of the present compound (94) or comparative compound D was dissolved. The solution was diluted with ion-exchanged water so that the active ingredient concentration became to the predetermined concentration (25 ppm) to prepare a pesticidal solution for test of the test compound. The root part of cabbages in the fourth leaf period was washed with tap water to remove soils, and then immersed in the pesticidal solution for test. After 5 days from immersion of the root part, the root part was removed, and the leaves and stems were put in a ice cream cup (volume; 180 mL). In the cup 10 second-instar larvae of Plutella xylostella were released, and the cup was stored at 24° C. After 5 days, the number of dead pests was countered, and the dead pest rate was calculated by the following equation:
as §1

[6] = tested on: Plutella xylostella; test: Test Example 5: cabbage root immersion, Plutella xylostella, against comparative compounds A and B; settings: 25 ppm; root immersion 5 days; 10 second-instar larvae; after 5 days at 24° C.
Description: as §2, with “(1), (4), (10), (82),” for “(94) or”, “A or B” for “D”, “a” for “a ice cream”
as §1

Q: With `CN(C(=O)c1c(F)cccc1F)C(=O)N(C)c1ccc(SC(F)(F)F)cc1F` [(10)] as the compound, how does the pest or weed control at 25 ppm [1] read?
A: Its pest or weed control at 25 ppm is 100%.

Q: And the control rate [2]?
A: The control rate was 65%.

Q: For `CN(C(=O)c1c(F)cccc1F)C(=O)N(C)c1ccc(SC(F)(F)C(F)F)cc1F` [(12)], which pest or weed control at 25 ppm [1] is on record?
A: Its pest or weed control at 25 ppm is 100%.

Q: And the control rate [2]?
A: The control rate was 60%.

Q: Which pest or weed control at 500 ppm [3] does the source give for `CN(C(=O)NC(=O)c1c(F)cccc1F)c1ccc(SC(F)(F)C(F)F)cc1` [(94)] here?
A: Its pest or weed control at 500 ppm is 100%.

Q: What about the pest or weed control at 500 ppm [4] of the same compound?
A: The pest or weed control at 500 ppm was 100%.

Q: And the dead pest rate [5]?
A: The dead pest rate was 100%.

Q: Which dead pest rate [6] does the source give for `O=C(NC(=O)c1c(F)cccc1F)Nc1ccc(SC(F)(F)F)cc1F` [comparative compound A] here?
A: Its dead pest rate is 5%.
